We go through 51 compounds from patent US20090239841A1, “Diaryl Ureas as CB1 Antagonists” (priority 2004, published 2009).

One test deals with T1, hCB1 (Homo sapiens, UniProt P21554).
T1 construct: made in house; host or cells: Sf9 insect cells (baculovirus), P2 membranes
T1 sequence (P21554 whole entry): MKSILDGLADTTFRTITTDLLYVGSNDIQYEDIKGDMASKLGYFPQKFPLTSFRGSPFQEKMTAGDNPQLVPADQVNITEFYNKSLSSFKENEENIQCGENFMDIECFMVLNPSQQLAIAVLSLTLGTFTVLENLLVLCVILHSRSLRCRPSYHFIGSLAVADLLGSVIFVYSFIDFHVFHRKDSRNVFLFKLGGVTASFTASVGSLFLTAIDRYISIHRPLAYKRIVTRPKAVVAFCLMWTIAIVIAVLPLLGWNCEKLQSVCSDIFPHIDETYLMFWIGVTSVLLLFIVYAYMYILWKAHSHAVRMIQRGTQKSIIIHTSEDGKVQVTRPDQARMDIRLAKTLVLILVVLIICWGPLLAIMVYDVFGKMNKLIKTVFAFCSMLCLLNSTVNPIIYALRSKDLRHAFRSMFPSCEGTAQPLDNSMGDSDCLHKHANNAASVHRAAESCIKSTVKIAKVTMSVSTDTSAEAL
Kind of test: Agonist-induced GTP binding (GTPγ35S) assay at CB1, Example 8. It is filed as biochemical. The conditions noted are these: IC50 at CB1, determined as described in Example 8; read-out: IC50. In outline:
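Antagonism read as inhibition of 1 nM CP55,940-stimulated GTPγ35S ([…]) binding, compounds at 10^−10 to 10^−5 M. Baculovirus-infected Sf9 membranes bearing hCB1 plus G-protein subunits, 60 min room-temperature incubation with 5 μM GDP. Filtration and scintillation counting; data as percent over basal.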
`COc1ccc(NC(=O)Nc2cc(F)cc(F)c2)cc1` [Compound 701, 1-(3,5-difluorophenyl)-3-(4-methoxyphenyl)urea]: the IC50 was less than 2 µM. On the same count and under the same terms, the value for `CCc1ccc(NC(=O)Nc2ccc([N+](=O)[O-])cc2)cc1` [Compound 487, 1-(4-ethylphenyl)-3-(4-nitrophenyl)urea] was less than 2 µM; that for `CCc1ccc(NC(=O)Nc2cccc(C)c2)cc1` [Compound 289, N-(4-ethylphenyl)-N′-(3-methylphenyl)urea] was less than 2 µM.

As to `CCCc1ccc(NC(=O)Nc2ccc(C(=O)OC)cc2)cc1` [Compound 651, methyl 4-({[(4-propylphenyl)amino]carbonyl}amino)benzoate], the IC50 is less than 2 µM. On the same count and under the same terms, the value for `CC(C)c1ccc(NC(=O)Nc2cccc(C#N)c2)cc1` [Compound 346, 1-(3-cyanophenyl)-3-(4-isopropylphenyl)urea] was less than 2 µM; that for `CCc1ccc(NC(=O)Nc2ccc(C)c(F)c2)cc1` [Compound 439, 1-(4-ethylphenyl)-3-(3-fluoro-4-methylphenyl)urea] was less than 2 µM. On the same count and under the same terms, the value for `CCOC(=O)c1cccc(NC(=O)Nc2ccc(C(=O)CC)cc2)c1` [Compound 721, ethyl 3-({[(4-propionylphenyl)amino]carbonyl}amino)benzoate] was less than 2 µM. Consider `O=C(Nc1cccc(F)c1)Nc1ccc2c(c1)CCC2` [Compound 431, 1-(2,3-dihydro-1H-inden-5-yl)-3-(3-fluorophenyl)urea], for which the IC50 is less than 2 µM. The same measure, in the same setting: the value for `CCCOc1ccc(NC(=O)Nc2ccc(Cl)cc2)cc1` [Compound 398, 1-(4-chlorophenyl)-3-(4-propoxyphenyl)urea] was less than 2 µM; that for `CCOc1ccc(NC(=O)Nc2cccc(CC)c2)cc1` [Compound 387, 1-(4-ethoxyphenyl)-3-(3-ethylphenyl)urea] was less than 2 µM; that for `CCOC(=O)c1ccc(NC(=O)Nc2ccc(CC)cc2)cc1` [Compound 498, ethyl 4-({[(4-ethylphenyl)amino]carbonyl}amino)benzoate] was less than 2 µM.

In the case of `COc1cccc(NC(=O)Nc2cccc(OC(C)C)c2)c1` [Compound 548, 1-(3-isopropoxyphenyl)-3-(3-methoxyphenyl)urea], the IC50 is less than 2 µM. The same measure, in the same setting: the value for `CCc1ccc(NC(=O)Nc2ccc3c(c2)CCC3)cc1` [Compound 442, 1-(2,3-dihydro-1H-inden-5-yl)-3-(4-ethylphenyl)urea] was less than 2 µM. The same measure, in the same setting: the value for `Cc1ccc(NC(=O)Nc2ccc(CC#N)cc2)cc1` [Compound 460, 1-[4-(cyanomethyl)phenyl]-3-(4-methylphenyl)urea] was less than 2 µM; that for `CCOC(=O)c1cccc(NC(=O)Nc2ccc(OC(C)C)cc2)c1` [Compound 674, ethyl 3-({[(4-isopropoxyphenyl)amino]carbonyl}amino)benzoate] was less than 2 µM.

As to `Cc1cccc(NC(=O)Nc2ccc(C(=O)OC(C)C)cc2)c1` [Compound 477, isopropyl 4-({[(3-methylphenyl)amino]carbonyl}amino)benzoate], the IC50 is less than 2 µM. `Cc1ccc(NC(=O)Nc2cccc(C#N)c2)cc1Cl` [Compound 457, 1-(3-chloro-4-methylphenyl)-3-(3-cyanophenyl)urea]: the IC50 is less than 2 µM. Still for that read-out and setting: the value for `CC(C)Oc1cccc(NC(=O)Nc2cccc(F)c2)c1` [Compound 363, 1-(3-fluorophenyl)-3-(3-isopropoxyphenyl)urea] was less than 2 µM; that for `CCOC(=O)c1ccc(NC(=O)Nc2cccc(OCCO)c2)cc1` [Compound 757, ethyl 4-[({[3-(2-hydroxyethoxy)phenyl]amino}carbonyl)amino] benzoate] was less than 2 µM; that for `Cc1ccc(NC(=O)Nc2ccc(F)cc2)cc1Cl` [Compound 434, 1-(3-chloro-4-methylphenyl)-3-(4-fluorophenyl)urea] was less than 2 µM. Same read-out and setting: the value for `CCCOc1ccc(NC(=O)Nc2ccc(C(C)=O)cc2)cc1` [Compound 417, 1-(4-acetylphenyl)-3-(4-propoxyphenyl)urea] was less than 2 µM; that for `COc1ccc(NC(=O)Nc2ccc(CC#N)cc2)cc1` [Compound 586, 1-[4-(cyanomethyl)phenyl]-3-(4-methoxyphenyl)urea] was less than 2 µM. On the same count and under the same terms, the value for `COCc1ccc(NC(=O)Nc2ccc(C)cc2)cc1` [Compound 359, 1-[4-(methoxymethyl)phenyl]-3-(4-methylphenyl)urea] was less than 2 µM. On to `CCCc1ccc(NC(=O)Nc2cccc(C(C)=O)c2)cc1` [Compound 351, 1-(3-acetylphenyl)-3-(4-propylphenyl)urea], for which the 50% inhibitory concentration (IC50) is less than 2 µM. Still for that read-out and setting: the value for `CC(C)c1ccc(NC(=O)Nc2ccc(Cl)nc2)cc1` [Compound 630, 1-(6-chloropyridin-3-yl)-3-(4-isopropylphenyl)urea] was less than 2 µM; that for `CCCCc1ccc(NC(=O)Nc2ccc(C)cc2)cc1` [Compound 295, N-(4-butylphenyl)-N′-(4-methylphenyl)urea] was less than 2 µM; that for `O=C(Nc1ccc(F)cc1)Nc1cccc(OC(F)F)c1` [Compound 372, 1-[3-(difluoromethoxy)phenyl]-3-(4-fluorophenyl)urea] was less than 2 µM. Same read-out and setting: the value for `CCC(=O)c1ccc(NC(=O)Nc2ccc(F)c(C)c2)cc1` [Compound 735, 1-(4-fluoro-3-methylphenyl)-3-(4-propionylphenyl)urea] was less than 2 µM; that for `CCOc1cccc(NC(=O)Nc2ccc(C(C)C)cc2)c1` [Compound 570, 1-(3-ethoxyphenyl)-3-(4-isopropylphenyl)urea] was less than 2 µM; that for `CCc1cccc(NC(=O)Nc2ccc(C(=O)OC)cc2)c1` [Compound 494, methyl 4-({[(3-ethylphenyl)amino]carbonyl}amino)benzoate] was less than 2 µM. Still for that read-out and setting: the value for `CCc1ccc(NC(=O)Nc2ccc(C)c(C)c2)cc1` [Compound 436, 1-(3,4-dimethylphenyl)-3-(4-ethylphenyl)urea] was less than 2 µM; that for `N#CCc1ccc(NC(=O)Nc2ccc(F)c(F)c2)cc1` [Compound 728, 1-[4-(cyanomethyl)phenyl]-3-(3,4-difluorophenyl)urea] was less than 2 µM.

The test is the same for the next values; noted with them: Table I; IC50 at CB1, GTP binding with 1 nM CP55,940; read-out: IC50.
On to `O=C(Nc1ccc(OC(F)F)cc1)Nc1cccc(O)c1` [Compound 17, N-[4-(difluoromethoxy)phenyl]-N′-(3-hydroxyphenyl)urea], for which the IC50 is less than 2 µM. Turning to `CC(C)c1ccc(NC(=O)Nc2ccccc2)cc1` [Compound 47, N-(4-isopropylphenyl)-N′-phenylurea], the IC50 is less than 2 µM. On the same count and under the same terms, the value for `CCCOc1ccc(NC(=O)Nc2ccccc2)cc1` [Compound 44, N-phenyl-N′-(4-propoxyphenyl)urea] was less than 2 µM.

The test is the same for the next values; noted with them: Table II; IC50 at CB1, GTP binding with 1 nM CP55,940; read-out: IC50.
Consider `COC(=O)c1ccc(NC(=O)Nc2ccc(OC(F)F)cc2)cc1` [Compound 132, methyl 4-[({[4-(difluoromethoxy)phenyl]amino}carbonyl)amino]benzoate], for which the half-maximal inhibitory concentration (IC50) was less than 2 µM. On the same count and under the same terms, the value for `O=C(Nc1ccc(F)cc1)Nc1cccc(OC(F)F)c1` [Compound 220, N-[3-(difluoromethoxy)phenyl]-N′-(4-fluorophenyl)urea] was less than 2 µM; that for `Cc1cc(-c2cccc(NC(=O)Nc3ccc(OC(F)F)cc3)c2)cc(C)n1` [Compound 120, N-[4-(difluoromethoxy)phenyl]-N′-[3-(2,6-dimethylpyridin-4-yl)phenyl]urea] was less than 2 µM; that for `CC(=O)c1ccc(NC(=O)Nc2cccc(Cl)c2)cc1` [Compound 191, N-(4-acetylphenyl)-N′-(3-chlorophenyl)urea] was less than 2 µM. As to `CCCOc1ccc(NC(=O)Nc2ccc(C(C)=O)cc2)cc1` [Compound 275, N-(4-acetylphenyl)-N′-(4-propoxyphenyl)urea], the IC50 is less than 2 µM. On to `Cc1cc(-c2cccc(NC(=O)Nc3cccc(OC(F)F)c3)c2)cc(C)n1` [Compound 147], for which the 50% inhibitory concentration (IC50) is less than 2 µM.

Turning to `CC(C)Oc1ccc(NC(=O)Nc2cccc(Cl)c2)cc1` [Compound 251, N-(3-chlorophenyl)-N′-(4-isopropoxyphenyl)urea], the IC50 was less than 2 µM. Same read-out and setting: the value for `O=C(Nc1ccc(OC(F)F)cc1)Nc1ccc2c(c1)C(=O)CC2` [Compound 83, N-[4-(difluoromethoxy)phenyl]-N′-(3-oxo-2,3-dihydro-1H-inden-5-yl)urea] was less than 2 µM; that for `CCc1ccc(NC(=O)Nc2ccc(F)c(C#N)c2)cc1` [Compound 152, N-(3-cyano-4-fluorophenyl)-N′-(4-ethylphenyl)urea] was less than 2 µM; that for `CCCc1ccc(NC(=O)Nc2ccc(Cl)cc2)cc1` [Compound 185, N-(4-chlorophenyl)-N′-(4-propylphenyl)urea] was less than 2 µM. Take `O=C(Nc1ccc(OC(F)F)cc1)Nc1cccc(-c2cnccn2)c1` [Compound 65, N-[4-(difluoromethoxy)phenyl]-N′-(3-pyrazin-2-ylphenyl)urea]: the IC50 is less than 2 µM. Turning to `O=C(Nc1ccc(OC(F)F)cc1)Nc1cccc(-c2ccc(C(F)(F)F)cn2)c1` [Compound 66, N-[4-(difluoromethoxy)phenyl]-N′-{3-[5-(trifluoromethyl)pyridin-2-yl]phenyl}urea], the IC50 is less than 2 µM. On the same count and under the same terms, the value for `CC(C)Oc1ccc(NC(=O)Nc2ccc(C#N)cc2)cc1` [Compound 279, N-(4-cyanophenyl)-N′-(4-isopropoxyphenyl)urea] was less than 2 µM; that for `O=C(Nc1ccc(OC(F)F)cc1)Nc1cccc(-c2cncc3ccccc23)c1` [Compound 68, N-[4-(difluoromethoxy)phenyl]-N′-(3-isoquinolin-4-ylphenyl)urea] was less than 2 µM. Same read-out and setting: the value for `CC(C)Oc1ccc(NC(=O)Nc2ccccc2)cc1` [Compound 224, N-(4-isopropoxyphenyl)-N′-phenylurea] was less than 2 µM. On the same count and under the same terms, the value for `CC(C)Oc1cccc(NC(=O)Nc2cccc(C#N)c2)c1` [Compound 276, N-(3-cyanophenyl)-N′-(3-isopropoxyphenyl)urea] was less than 2 µM.

The IC50 is the concentration at which inhibition is half-maximal.
